Activity calls are given as the source filed them.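 Rule for the calls: active = inhibition of probe labelling of the enzyme band in the gel above 60%; inactive = inhibition at or below 60%.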
System: Fam108b (ABHD17B) serine hydrolase [Mus musculus]
Assay: Fam108b hydrolase inhibitors in membrane proteome – cell lysate, gel-based competitive ABPP, full-length membrane form, powders, SAR follow-up (AID 588585)
Details: competitive ABPP FP-Rh gel, at 5 µM, stronger effect = higher value

Row | Structure (SMILES) | inhibition
1 | CC(C)(C)c1nc2scc(-c3ccccc3)c2c(=S)s1 | 0% (inactive)
2 | COc1ccc(-c2csc3cc(-c4ccccc4Cl)oc(=O)c23)cc1 | 0% (inactive)
3 | Cc1ccc(C2NC(=O)c3c(sc4c3CCCC4)N2)cc1 (centres undefined) | 0% (inactive)
4 | Cc1ccc(-c2csc3cc(-c4ccc(Br)cc4)oc(=O)c23)cc1 | 0% (inactive)
5 | O=c1c2c(-c3ccccc3)csc2ncn1Cc1ccccc1 | 0% (inactive)
6 | O=c1oc(-c2ccco2)cc2scc(-c3ccc(Br)cc3)c12 | 0% (inactive)
7 | COc1ccc(C2NC(=O)c3c(sc(C)c3C)N2)cc1 (centres undefined) | 0% (inactive)

Second part, the molecule after the results:

Row | inhibition | Structure (SMILES)
8 | 0% (inactive) | O=c1[nH]c(=S)[nH]c2scc(-c3ccccc3)c12
9 | 0% (inactive) | O=c1[nH]c(-c2cccs2)nc2scc(-c3ccccc3)c12
10 | 0% (inactive) | O=c1[nH]c(=O)c2c(-c3ccccc3)csc2[nH]1
11 | 0% (inactive) | O=c1[nH]c(-c2ccccc2)nc2scc(-c3ccccc3)c12
12 | 0% (inactive) | O=c1[nH]c(=S)[nH]c2scc(-c3cccs3)c12
13 | 0% (inactive) | O=c1[nH]c(-c2ccccc2)nc2scc(-c3cccs3)c12
14 | 0% (inactive) | Fc1ccccc1-c1nc2scc(-c3cccs3)c2c(=S)s1
